Structures can show the parent of a compound that is named as a salt.

T1 sequence (P06756 31-992 limits assumed): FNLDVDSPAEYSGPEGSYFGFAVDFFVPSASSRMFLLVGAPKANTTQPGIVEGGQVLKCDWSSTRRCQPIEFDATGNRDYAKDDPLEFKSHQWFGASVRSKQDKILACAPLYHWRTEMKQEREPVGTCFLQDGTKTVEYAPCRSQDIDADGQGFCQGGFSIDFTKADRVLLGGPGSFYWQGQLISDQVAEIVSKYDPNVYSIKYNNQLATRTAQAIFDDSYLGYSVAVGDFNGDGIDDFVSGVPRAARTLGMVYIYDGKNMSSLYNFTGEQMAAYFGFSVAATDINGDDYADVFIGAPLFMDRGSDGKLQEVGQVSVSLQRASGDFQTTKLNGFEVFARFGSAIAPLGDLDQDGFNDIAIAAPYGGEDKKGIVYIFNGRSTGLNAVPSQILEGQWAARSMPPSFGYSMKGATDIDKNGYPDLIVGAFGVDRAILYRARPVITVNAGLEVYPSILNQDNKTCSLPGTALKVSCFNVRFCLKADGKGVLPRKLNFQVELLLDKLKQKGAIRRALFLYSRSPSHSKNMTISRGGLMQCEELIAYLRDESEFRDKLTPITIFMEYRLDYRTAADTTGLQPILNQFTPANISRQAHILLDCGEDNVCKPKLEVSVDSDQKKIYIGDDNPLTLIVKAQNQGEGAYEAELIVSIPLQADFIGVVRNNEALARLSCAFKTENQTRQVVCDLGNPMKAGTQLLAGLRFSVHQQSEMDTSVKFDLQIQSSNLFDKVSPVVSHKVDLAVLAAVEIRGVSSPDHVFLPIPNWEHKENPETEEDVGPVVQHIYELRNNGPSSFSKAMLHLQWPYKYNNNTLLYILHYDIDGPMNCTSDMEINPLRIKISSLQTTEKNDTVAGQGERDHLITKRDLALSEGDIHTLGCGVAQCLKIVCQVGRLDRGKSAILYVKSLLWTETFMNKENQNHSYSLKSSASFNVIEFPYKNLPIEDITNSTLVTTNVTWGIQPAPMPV
T1 sequence (P18564 22-707 limits assumed): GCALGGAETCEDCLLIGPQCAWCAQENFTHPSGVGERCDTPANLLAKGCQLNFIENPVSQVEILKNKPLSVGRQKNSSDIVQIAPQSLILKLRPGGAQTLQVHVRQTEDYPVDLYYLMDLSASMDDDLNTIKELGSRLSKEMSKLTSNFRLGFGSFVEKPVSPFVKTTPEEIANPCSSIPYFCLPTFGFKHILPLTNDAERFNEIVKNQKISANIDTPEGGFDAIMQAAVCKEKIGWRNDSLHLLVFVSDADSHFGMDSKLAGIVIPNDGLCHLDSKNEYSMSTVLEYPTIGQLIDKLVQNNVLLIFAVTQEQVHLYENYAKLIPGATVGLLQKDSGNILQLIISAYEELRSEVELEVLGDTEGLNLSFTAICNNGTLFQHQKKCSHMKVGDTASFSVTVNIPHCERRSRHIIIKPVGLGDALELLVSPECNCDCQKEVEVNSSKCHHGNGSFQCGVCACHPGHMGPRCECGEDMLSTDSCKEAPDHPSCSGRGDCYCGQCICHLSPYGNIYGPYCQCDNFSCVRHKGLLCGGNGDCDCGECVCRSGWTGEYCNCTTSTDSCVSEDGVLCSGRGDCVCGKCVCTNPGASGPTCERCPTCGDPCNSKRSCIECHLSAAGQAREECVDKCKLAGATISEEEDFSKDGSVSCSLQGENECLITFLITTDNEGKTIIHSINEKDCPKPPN

The experiment has as its target T1, human αVβ6 (Homo sapiens, UniProt P06756+P18564).
T1 construct: purchased R & D systems 3817-AV
The experiment in a line: human αVβ6 HTRF binding assay. The conditions noted are these: recombinant human αVβ6 integrin, FITC-conjugated fibronectin. On the procedure:
All binding assays used the HTRF (homogeneous time resolved fluorescence) technology from Cisbio International, therefore all assays are described as HTRF binding assays. The assay results for the Examples are listed above together with the characterization data. The HTRF binding assays are established for the following integrins: human αVβ6, human αVβ1, human αVβ3, human αVβ5, and human αVβ8. All assays used the following assay buffer: 20 mM Tris, pH 7.4, 1 mM MgCl2, 1 mM MnCl2, 0.01% Tween 20, and 0.01% BSA. Alternatively, a SPA-based assay was used for evaluation of receptor binding.
The following describes the components and a representative procedure for the human αVβ6 HTRF binding assay: Recombinant human αVβ6 Integrin (R & D systems, 3817-AV) was biotinylated. Biotinylated human αVβ6 Integrin was added to assay vessel at a final concentration of 1.25 nM. FITC-conjugated fibronectin (Cytoskeleton, FNR02) was then added at the final concentration of 5 nM. The mixture was centrifuged at 600 rpm for three minutes using Thermo Fisher Heraeus Multifuge X3 centrifuge and then incubated at room temperature for an hour. Streptavidin Terbium (Cisbio international 610STLB) was then added at the final concentration of 0.625 nM. The resulting mixture was centrifuged at 600 rpm for three minutes using Thermo Fisher Heraeus Multifuge X3 centrifuge and then incubated at room temperature overnight in dark before reading HTRF signals. […]
For orientation: In TR-FRET formats the signal depends on donor and acceptor labels being close together.
On to `Cc1nc2cc(C(CC(=O)O)n3ncc4cc(OCCc5ccc6c(n5)NCCC6)ccc43)ccc2s1` (stereo not shown) [Example 56, 3-(2-Methylbenzo[d]thiazol-5-yl)-3-(5-(2-(5,6,7,8-tetrahydro-1,8-naphthyridin-2-yl)ethoxy)-1H-indazol-1-yl)propanoic acid, TFA], for which the IC50 was determined as 4.1 nM.

For the molecule `O=C(O)C[C@H](c1cncc(CO)c1)n1ncc2cc(OCCc3ccc4c(n3)NCCC4)ccc21` [Example 99, (R)-3-(5-(Hydroxymethyl)pyridin-3-yl)-3-(5-(2-(5,6,7,8-tetrahydro-1,8-naphthyridin-2-yl)ethoxy)-1H-indazol-1-yl)propanoic acid], the IC50 is 340 nM.

`COc1ccc([C@H](CC(=O)O)n2ncc3cc(OCCc4ccc5c(n4)NCCO5)ccc32)cn1` [Example 180, (S)-3-(5-(2-(3,4-dihydro-2H-pyrido[3,2-b][1,4]oxazin-6-yl)ethoxy)-1H-indazol-1-yl)-3-(6-methoxypyridin-3-yl)propanoic acid]: the IC50 came to 15 nM.

Regarding `COc1ncc([C@@H](CC(=O)O)n2ncc3cc(OCCc4ccc5c(n4)NCCC5)ccc32)cn1` [Example 147, (R)-3-(2-methoxypyrimidin-5-yl)-3-(5-(2-(5,6,7,8-tetrahydro-1,8-naphthyridin-2-yl)ethoxy)-1H-indazol-1-yl)propanoic acid], the IC50 came out at 620 nM.

Take `O=C(O)CC(c1cccc(-n2cccc2)c1)n1ncc2cc(OCCc3ccc4c(n3)NCCC4)ccc21` (stereo not shown) [Example 59, 3-(3-(1H-Pyrrol-1-yl)phenyl)-3-(5-(2-(5,6,7,8-tetrahydro-1,8-naphthyridin-2-yl)ethoxy)-1H-indazol-1-yl)propanoic acid, TFA]: the IC50 turned out to be 1.2 nM.

For the molecule `Cc1cc(C)nc(C(CC(=O)O)n2ncc3cc(OCCc4ccc5c(n4)NCCC5)ccc32)n1` (stereo not shown) [Example 55, 3-(4,6-Dimethylpyrimidin-2-yl)-3-(5-(2-(5,6,7,8-tetrahydro-1,8-naphthyridin-2-yl)ethoxy)-1H-indazol-1-yl)propanoic acid, TFA], the IC50 worked out at 920 nM.

In the case of `COc1ccc(C(CC(=O)O)n2ncc3c(OCCc4ccc5c(n4)NCCC5)cccc32)cn1` (stereo not shown) [Example 3, 3-(6-Methoxypyridin-3-yl)-3-(4-(2-(5,6,7,8-tetrahydro-1,8-naphthyridin-2-yl)ethoxy)-1H-indazol-1-yl)propanoic acid], the IC50 worked out at 2300 nM.

With `O=C(NC(Cn1ncc2c(OCCc3ccc4c(n3)NCCC4)cccc21)C(=O)O)OCc1ccccc1` (stereo not shown) [Example 39, 2-(((Benzyloxy)carbonyl)amino)-3-(4-(2-(5,6,7,8-tetrahydro-1,8-naphthyridin-2-yl)ethoxy)-1H-indazol-1-yl)propanoic acid], the IC50 was determined as 340 nM.

In the case of `COc1ccc([C@H](CC(=O)O)n2cc3cc(CCCc4ccc5c(n4)NCCC5)ccc3n2)cn1` [Example 67, (S)-3-(6-Methoxypyridin-3-yl)-3-(5-(3-(5,6,7,8-tetrahydro-1,8-naphthyridin-2-yl)propyl)-2H-indazol-2-yl)propanoic acid], the IC50 is 740 nM.

Regarding `CN(C)C(=O)c1cccc(C(CC(=O)O)n2ncc3cc(CCc4ccc5c(n4)NCCC5)ccc32)c1` (stereo not shown) [Example 24, 3-(3-(Dimethylcarbamoyl)phenyl)-3-(5-(2-(5,6,7,8-tetrahydro-1,8-naphthyridin-2-yl)ethyl)-1H-indazol-1-yl)propanoic acid], the IC50 stood at 130 nM.

`O=C(O)CC(c1cnc2ccccc2n1)n1ncc2cc(CCCc3ccc4c(n3)NCCC4)ccc21` (stereo not shown) [Example 22, 3-(Quinoxalin-2-yl)-3-(5-(3-(5,6,7,8-tetrahydro-1,8-naphthyridin-2-yl)propyl)-1H-indazol-1-yl)propanoic acid]: the IC50 came out at 190 nM.

Take `O=C(O)CC(c1cncc(N2CCOCC2)c1)n1ncc2cc(OCCc3ccc4c(n3)NCCC4)ccc21` (stereo not shown) [Example 124, 3-(5-Morpholinopyridin-3-yl)-3-(5-(2-(5,6,7,8-tetrahydro-1,8-naphthyridin-2-yl)ethoxy)-1H-indazol-1-yl)propanoic acid, 3 TFA]: the IC50 amounted to 1.9 nM.

As to `COc1ccc(C(CC(=O)O)n2ncc3nc(OCCc4ccc5c(n4)NCCC5)ccc32)cn1` (stereo not shown) [Example 11, 3-(6-Methoxypyridin-3-yl)-3-(5-(2-(5,6,7,8-tetrahydro-1,8-naphthyridin-2-yl)ethoxy)pyrazolo[4,3-b]pyridin-1-yl)propanoic acid], the IC50 was 120 nM.

For the molecule `O=C(O)CC(c1ccc2c(c1)oc1ccccc12)n1ncc2cc(CCc3ccc4c(n3)NCCC4)ccc21` (stereo not shown) [Example 25, 3-(Dibenzo[b,d]furan-3-yl)-3-(5-(2-(5,6,7,8-tetrahydro-1,8-naphthyridin-2-yl)ethyl)-1H-indazol-1-yl)propanoic acid], the IC50 turned out to be 530 nM.

As to `CS(=O)(=O)c1cncc([C@H](CC(=O)O)n2ncc3cc(OCCc4ccc5c(n4)NCCC5)ccc32)c1` [Example 166, (S)-3-(5-(methylsulfonyl)pyridin-3-yl)-3-(5-(2-(5,6,7,8-tetrahydro-1,8-naphthyridin-2-yl)ethoxy)-1H-indazol-1-yl)propanoic acid], the IC50 is 5.2 nM.

As to `O=C(O)CC(c1ccc(F)cn1)n1ncc2cc(OCCc3ccc4c(n3)NCCC4)ccc21` (stereo not shown) [Example 53, 3-(5-Fluoropyridin-2-yl)-3-(5-(2-(5,6,7,8-tetrahydro-1,8-naphthyridin-2-yl)ethoxy)-1H-indazol-1-yl)propanoic acid, TFA], the IC50 stood at 150 nM.

Take `COC(=O)NCc1cncc(C(CC(=O)O)n2ncc3cc(OCCc4ccc5c(n4)NCCC5)ccc32)c1` (stereo not shown) [Example 167, 3-(5-(((Methoxycarbonyl)amino)methyl)pyridin-3-yl)-3-(5-(2-(5,6,7,8-tetrahydro-1,8-naphthyridin-2-yl)ethoxy)-1H-indazol-1-yl)propanoic acid]: the IC50 turned out to be 15 nM.

As for `O=C(O)CC(c1ccc2cccnc2n1)n1ncc2cc(OCCc3ccc4c(n3)NCCC4)ccc21` (stereo not shown) [Example 96, 3-(1,8-Naphthyridin-2-yl)-3-(5-(2-(5,6,7,8-tetrahydro-1,8-naphthyridin-2-yl)ethoxy)-1H-indazol-1-yl)propanoic acid, 2 TFA], the IC50 was determined as 7.2 nM.

As for `COc1ccc([C@H](CC(=O)O)n2cc3ccc(Cc4cc5c(nc4C)NCCC5)cc3n2)cn1` [Example 8, (S)-3-(6-Methoxypyridin-3-yl)-3-(6-((2-methyl-5,6,7,8-tetrahydro-1,8-naphthyridin-3-yl)methyl)-2H-indazol-2-yl)propanoic acid], the IC50 is 390 nM.

For `COc1ccc(C(CC(=O)O)n2ncc3c(CCCc4ccc5c(n4)NCCC5)cccc32)cn1` (stereo not shown) [Example 1, 3-(6-Methoxypyridin-3-yl)-3-(4-(3-(5,6,7,8-tetrahydro-1,8-naphthyridin-2-yl)propyl)-1H-indazol-1-yl)propanoic acid], the IC50 came out at 1600 nM.

With `O=C(O)C[C@@H](c1cncc(C2OCCO2)c1)n1ncc2cc(OCCc3ccc4c(n3)NCCC4)ccc21` [Example 139, (S)-3-(5-(1,3-dioxolan-2-yl)pyridin-3-yl)-3-(5-(2-(5,6,7,8-tetrahydro-1,8-naphthyridin-2-yl)ethoxy)-1H-indazol-1-yl)propanoic acid], the IC50 worked out at 4.7 nM.

In the case of `CN(C)C(=O)c1cccc(C(CC(=O)O)n2ncc3c(OCCc4ccc5c(n4)NCCC5)cccc32)c1` (stereo not shown) [Example 29, 3-(3-(Dimethylcarbamoyl)phenyl)-3-(4-(2-(5,6,7,8-tetrahydro-1,8-naphthyridin-2-yl)ethoxy)-1H-indazol-1-yl)propanoic acid], the IC50 was found to be 1500 nM.

In the case of `O=C(O)CC(c1cc(Cl)cc(Cl)c1)n1ncc2cc(CCc3ccc4c(n3)NCCC4)ccc21` (stereo not shown) [Example 28, 3-(3,5-Dichlorophenyl)-3-(5-(2-(5,6,7,8-tetrahydro-1,8-naphthyridin-2-yl)ethyl)-1H-indazol-1-yl)propanoic acid], the IC50 amounted to 210 nM.

With `Cc1ncc([C@@H](CC(=O)O)n2ncc3cc(OCCc4ccc5c(n4)NCCC5)ccc32)cn1` [Example 160, (R)-3-(2-methylpyrimidin-5-yl)-3-(5-(2-(5,6,7,8-tetrahydro-1,8-naphthyridin-2-yl)ethoxy)-1H-indazol-1-yl)propanoic acid], the IC50 turned out to be 2600 nM.

As to `COc1ccc(C(CC(=O)O)n2nc(C)c3cc(OCCc4ccc5c(n4)NCCC5)ccc32)cn1` (stereo not shown) [Example 70, 3-(6-Methoxypyridin-3-yl)-3-(3-methyl-5-(2-(5,6,7,8-tetrahydro-1,8-naphthyridin-2-yl)ethoxy)-1H-indazol-1-yl)propanoic acid], the IC50 turned out to be 953 nM.

For the molecule `O=C(O)CC(c1cccc(N2CCOCC2)c1)n1ncc2cc(OCCc3ccc4c(n3)NCCC4)ccc21` (stereo not shown) [Example 58, 3-(3-Morpholinophenyl)-3-(5-(2-(5,6,7,8-tetrahydro-1,8-naphthyridin-2-yl)ethoxy)-1H-indazol-1-yl)propanoic acid, TFA], the IC50 was determined as 1.7 nM.

For the molecule `COc1ccc(C(CC(=O)O)n2ncc3c(CCc4ccc5c(n4)NCCC5)cccc32)cn1` (stereo not shown) [Example 174, 3-(6-Methoxypyridin-3-yl)-3-(4-(2-(5,6,7,8-tetrahydro-1,8-naphthyridin-2-yl)ethyl)-1H-indazol-1-yl)propanoic acid], the IC50 stood at 540 nM.

Take `COc1cncc(C(CC(=O)O)n2ncc3cc(OCCc4ccc5c(n4)NCCC5)ccc32)n1` (stereo not shown) [Example 149, 3-(6-methoxypyrazin-2-yl)-3-(5-(2-(5,6,7,8-tetrahydro-1,8-naphthyridin-2-yl)ethoxy)-1H-indazol-1-yl)propanoic acid]: the IC50 is 2300 nM.

A word on the IC50: it is the point on the concentration scale where inhibition reaches its midpoint.
